Assay results: ChEMBL document CHEMBL1134991, “Alpha(1)-adrenoceptor activation: a comparison of 4-(anilinomethyl)imidazoles and 4-(phenoxymethyl)imidazoles to related 2-imidazolines” (Bioorg Med Chem Lett, 2002)

Assays:
[1] = target: T1, Alpha-1B adrenergic receptor (Homo sapiens, UniProt P35368); assay: Activation of human alpha-1B adrenergic receptors expressed in rat-1 fibroblasts; assay type: functional
T1 sequence (P35368 whole entry): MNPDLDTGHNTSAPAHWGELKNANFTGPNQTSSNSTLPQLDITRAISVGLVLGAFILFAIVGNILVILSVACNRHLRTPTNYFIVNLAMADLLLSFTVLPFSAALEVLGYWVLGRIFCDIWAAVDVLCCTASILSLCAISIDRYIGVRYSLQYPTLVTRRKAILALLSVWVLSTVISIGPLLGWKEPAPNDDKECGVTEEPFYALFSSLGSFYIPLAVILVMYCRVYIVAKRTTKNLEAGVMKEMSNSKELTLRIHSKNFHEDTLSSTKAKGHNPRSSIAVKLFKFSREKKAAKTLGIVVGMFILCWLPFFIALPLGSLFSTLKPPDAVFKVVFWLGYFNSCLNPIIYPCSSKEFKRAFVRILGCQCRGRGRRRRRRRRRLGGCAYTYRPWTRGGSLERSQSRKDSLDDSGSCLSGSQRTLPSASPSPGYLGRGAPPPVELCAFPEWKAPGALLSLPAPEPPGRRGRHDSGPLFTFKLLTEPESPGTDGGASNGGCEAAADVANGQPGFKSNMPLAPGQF

[2] = target: T1, Alpha-1B adrenergic receptor; assay: In vitro binding affinity against cloned human alpha-1B-adrenoceptor receptors expressed in rat-1 fibroblasts
[3] = target: T2, Alpha-1A adrenergic receptor (Homo sapiens, UniProt P35348); assay: In vitro binding affinity against cloned human alpha-1A-adrenoceptor receptors expressed in rat-1 fibroblasts
T2 sequence (P35348 whole entry): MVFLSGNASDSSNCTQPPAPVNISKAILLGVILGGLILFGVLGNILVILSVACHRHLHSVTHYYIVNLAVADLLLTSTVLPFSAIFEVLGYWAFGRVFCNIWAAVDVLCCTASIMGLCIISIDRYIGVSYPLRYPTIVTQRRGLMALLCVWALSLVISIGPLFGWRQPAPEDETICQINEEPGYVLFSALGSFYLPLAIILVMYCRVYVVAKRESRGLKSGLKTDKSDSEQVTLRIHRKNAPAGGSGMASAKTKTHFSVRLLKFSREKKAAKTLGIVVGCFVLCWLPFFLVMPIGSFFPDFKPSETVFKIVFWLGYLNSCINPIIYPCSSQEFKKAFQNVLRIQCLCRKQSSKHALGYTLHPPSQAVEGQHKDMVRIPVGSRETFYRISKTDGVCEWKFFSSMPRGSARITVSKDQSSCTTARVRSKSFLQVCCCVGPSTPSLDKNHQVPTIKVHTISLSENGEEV

[4] = target: T2, Alpha-1A adrenergic receptor; assay: Activation of human alpha-1A adrenergic receptor expressed in rat-1 fibroblasts; assay type: functional
[5] = Acid dissociation constant for the compound was determined; assay type: ADME
[6] = target: T3, Alpha-1D adrenergic receptor (Homo sapiens, UniProt P25100); assay: Activation of human Alpha-1D adrenergic receptors expressed in rat-1 fibroblasts; assay type: functional
T3 sequence (P25100 whole entry): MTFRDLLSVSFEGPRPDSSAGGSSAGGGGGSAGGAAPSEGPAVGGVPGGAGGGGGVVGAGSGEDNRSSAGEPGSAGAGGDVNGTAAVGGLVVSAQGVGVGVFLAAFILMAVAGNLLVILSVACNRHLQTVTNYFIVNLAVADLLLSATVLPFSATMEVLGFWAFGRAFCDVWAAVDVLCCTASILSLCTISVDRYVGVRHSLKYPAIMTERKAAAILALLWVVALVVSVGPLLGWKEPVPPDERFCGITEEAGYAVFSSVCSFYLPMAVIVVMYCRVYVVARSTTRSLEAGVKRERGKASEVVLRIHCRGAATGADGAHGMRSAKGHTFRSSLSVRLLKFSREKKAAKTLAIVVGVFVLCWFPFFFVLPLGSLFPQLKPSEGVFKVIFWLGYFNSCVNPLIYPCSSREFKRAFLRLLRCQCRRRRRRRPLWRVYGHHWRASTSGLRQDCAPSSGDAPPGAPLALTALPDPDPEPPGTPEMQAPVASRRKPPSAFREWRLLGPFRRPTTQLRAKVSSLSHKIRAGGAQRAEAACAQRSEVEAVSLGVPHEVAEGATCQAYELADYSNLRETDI

[7] = target: T3, Alpha-1D adrenergic receptor; assay: In vitro binding affinity against cloned human alpha-1D-adrenoceptor receptors expressed in rat-1 fibroblasts
[8] = target: T4, Alpha-1D adrenergic receptor (Homo sapiens) (UniProt P25100); assay: Activation of human alpha-1D-adrenoceptor receptor expressed in rat-1 fibroblasts relative to phenylephrine; assay type: functional
T4 sequence (whole entry): T3 sequence (P25100 whole entry)

[9] = target: T5, Alpha-1A adrenergic receptor (Homo sapiens) (UniProt P35348); assay: Activation of human alpha-1A adrenergic receptor expressed in rat-1 fibroblasts; expressed as a percent of the maximal effect of the phenylephrine; assay type: functional
T5 sequence (whole entry): T2 sequence (P35348 whole entry)

[10] = target: T6, Adrenergic receptor alpha-1 (Rattus norvegicus, UniProt P15823+P23944+P43140); assay: Inhibition of binding of [3H]-prazosin at alpha1 adrenoceptors isolated from rat brain
T6 sequence (P15823 whole entry): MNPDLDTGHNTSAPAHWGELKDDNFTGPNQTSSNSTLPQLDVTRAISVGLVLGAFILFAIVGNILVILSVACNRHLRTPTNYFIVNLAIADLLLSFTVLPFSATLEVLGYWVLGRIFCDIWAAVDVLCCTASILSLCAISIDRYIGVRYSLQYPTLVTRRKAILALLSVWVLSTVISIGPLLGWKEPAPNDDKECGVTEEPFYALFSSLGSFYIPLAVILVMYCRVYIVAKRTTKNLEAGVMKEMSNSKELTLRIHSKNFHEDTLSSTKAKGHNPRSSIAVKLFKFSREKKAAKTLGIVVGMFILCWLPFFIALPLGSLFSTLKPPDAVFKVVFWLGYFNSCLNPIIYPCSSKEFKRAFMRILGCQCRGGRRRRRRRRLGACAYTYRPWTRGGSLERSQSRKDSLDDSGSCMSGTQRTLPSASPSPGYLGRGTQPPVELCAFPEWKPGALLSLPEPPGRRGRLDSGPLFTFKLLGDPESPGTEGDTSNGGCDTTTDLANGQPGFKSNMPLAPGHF
T6 sequence (P23944 whole entry): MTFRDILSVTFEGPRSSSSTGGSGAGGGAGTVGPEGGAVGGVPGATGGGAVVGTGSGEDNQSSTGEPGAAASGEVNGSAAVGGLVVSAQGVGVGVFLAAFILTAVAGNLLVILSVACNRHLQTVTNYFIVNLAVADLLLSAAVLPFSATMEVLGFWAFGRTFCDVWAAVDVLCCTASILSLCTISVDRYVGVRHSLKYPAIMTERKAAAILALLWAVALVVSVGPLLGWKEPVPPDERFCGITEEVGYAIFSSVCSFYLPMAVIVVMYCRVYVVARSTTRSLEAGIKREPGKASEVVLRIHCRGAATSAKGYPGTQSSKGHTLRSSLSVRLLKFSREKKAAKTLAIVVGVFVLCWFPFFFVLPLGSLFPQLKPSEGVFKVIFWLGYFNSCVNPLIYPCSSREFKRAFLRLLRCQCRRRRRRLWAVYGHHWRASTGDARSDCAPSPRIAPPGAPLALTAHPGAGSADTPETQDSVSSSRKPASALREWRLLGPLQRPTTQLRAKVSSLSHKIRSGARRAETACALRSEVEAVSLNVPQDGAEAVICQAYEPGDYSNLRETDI
T6 sequence (P43140 whole entry): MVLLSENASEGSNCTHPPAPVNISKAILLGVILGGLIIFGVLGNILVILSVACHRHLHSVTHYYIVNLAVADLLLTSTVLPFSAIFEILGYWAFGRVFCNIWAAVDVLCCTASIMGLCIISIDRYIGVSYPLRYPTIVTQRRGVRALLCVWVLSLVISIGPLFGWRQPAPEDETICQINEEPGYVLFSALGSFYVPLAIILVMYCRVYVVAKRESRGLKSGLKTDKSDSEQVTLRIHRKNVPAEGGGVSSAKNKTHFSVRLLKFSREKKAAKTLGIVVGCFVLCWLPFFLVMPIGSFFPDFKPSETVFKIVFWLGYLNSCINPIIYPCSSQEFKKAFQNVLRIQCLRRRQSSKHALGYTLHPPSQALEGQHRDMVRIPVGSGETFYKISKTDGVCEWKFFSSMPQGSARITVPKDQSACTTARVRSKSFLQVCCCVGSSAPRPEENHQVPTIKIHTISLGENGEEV

[11] = target: T7, Alpha-1B adrenergic receptor (Homo sapiens) (UniProt P35368); assay: Activation of human alpha-1B-adrenoceptor receptors expressed in rat-1 fibroblasts as percent maximal effect relative to phenylephrine; assay type: functional
T7 sequence (whole entry): T1 sequence (P35368 whole entry)

CSc1ccccc1NCc1cnc[nH]1
EC50 [1]: 25.1 nM
IC50 [2]: 891 nM
IC50 [3]: 170 nM
EC50 [4]: 10 nM
pKa [5]: 6.5
EC50 [6]: 20 nM
IC50 [7]: 57.5 nM

Oc1ccc2cccc(NCC3=NCCN3)c2c1
EC50 [1]: > 5010 nM
Max [8]: 53%
EC50 [4]: 6.31 nM
EC50 [6]: 31.6 nM
Max [9]: 110%

Cc1ccc(C)c(OCc2c[nH]cn2)c1
IC50 [10]: 102 nM

Clc1cccc(Cl)c1NCc1c[nH]cn1
IC50 [10]: 263 nM

CCCNC(=O)c1ccccc1NCC1=NCCN1
IC50 [2]: 1700 nM
IC50 [3]: 282 nM
IC50 [7]: 513 nM

c1ccc(N2CCCCC2)c(NCc2c[nH]cn2)c1
EC50 [1]: > 5010 nM
EC50 [4]: 50.1 nM
EC50 [6]: > 5010 nM
Max [9]: 95%

CSc1ccccc1NCc1c[nH]cn1
Max [8]: 36%
Max [11]: 78%
Max [9]: 94%

c1ccc(-c2ccccc2OCc2c[nH]cn2)cc1
EC50 [1]: > 100000 nM
IC50 [2]: 5890 nM
IC50 [3]: 302 nM
EC50 [4]: 15.8 nM
EC50 [6]: > 100000 nM
Max [9]: 102%
IC50 [7]: 933 nM

COc1ccc(S(C)(=O)=O)c(NCC2=NCCN2)c1
EC50 [1]: > 100000 nM
EC50 [4]: 12.6 nM
EC50 [6]: > 100000 nM

c1ccc(-c2ccccc2OCC2=NCCN2)nc1
Max [9]: 104%

CCCNC(=O)c1ccccc1NCc1c[nH]cn1
EC50 [1]: 316 nM
IC50 [2]: 3020 nM
IC50 [3]: 77.6 nM
Max [8]: 77%
EC50 [4]: 3.98 nM
Max [11]: 89%
EC50 [6]: 79.4 nM
Max [9]: 100%
IC50 [7]: 871 nM

CCN(CC)C(=O)c1ccccc1OCC1=NCCN1
EC50 [1]: > 100000 nM
IC50 [2]: > 30200 nM
IC50 [3]: > 30200 nM
EC50 [4]: > 100000 nM
EC50 [6]: > 100000 nM
IC50 [7]: > 30200 nM

c1ccc(-c2cnco2)c(NCc2c[nH]cn2)c1
EC50 [1]: > 5010 nM
Max [8]: 51%
EC50 [4]: 50.1 nM
EC50 [6]: > 251 nM
Max [9]: 120%

CCN(CC)C(=O)c1ccccc1NCc1c[nH]cn1
EC50 [1]: > 5010 nM
EC50 [4]: 63.1 nM
EC50 [6]: > 5010 nM
Max [9]: 114%

c1ccc(-c2cnco2)c(NCC2=NCCN2)c1
EC50 [1]: > 5010 nM
EC50 [4]: 20 nM
EC50 [6]: > 5010 nM
Max [9]: 107%

CS(=O)(=O)c1ccccc1NCC1=NCCN1
EC50 [1]: > 100000 nM
EC50 [4]: 50.1 nM
EC50 [6]: > 100000 nM
Max [9]: 105%

c1ccc(-c2ccno2)c(OCc2c[nH]cn2)c1
EC50 [1]: > 100000 nM
EC50 [4]: 158 nM
EC50 [6]: > 100000 nM
Max [9]: 91%

CCN(CC)C(=O)c1ccccc1OCc1c[nH]cn1
EC50 [1]: > 100000 nM
IC50 [2]: > 30200 nM
IC50 [3]: > 30200 nM
EC50 [4]: > 100000 nM
EC50 [6]: > 100000 nM
IC50 [7]: > 30200 nM

c1ccc(-c2ccno2)c(OCC2=NCCN2)c1
EC50 [1]: 100 nM
Max [8]: 34%
EC50 [4]: 6.31 nM
Max [11]: 81%
EC50 [6]: 100 nM
Max [9]: 91%

Oc1ccc2cccc(NCc3c[nH]cn3)c2c1
EC50 [1]: > 5010 nM
EC50 [4]: 63.1 nM
EC50 [6]: > 5010 nM
Max [9]: 100%

c1ccc(-c2ccccc2OCC2=NCCN2)cc1
IC50 [2]: 2400 nM
IC50 [3]: 66.1 nM
Max [9]: 96%
IC50 [7]: 550 nM

c1ccc(N2CCCCC2)c(NCC2=NCCN2)c1
EC50 [1]: > 5010 nM
EC50 [4]: 12.6 nM
EC50 [6]: > 5010 nM
Max [9]: 114%

CS(=O)(=O)c1ccccc1NCc1c[nH]cn1
EC50 [1]: > 100000 nM
EC50 [4]: 126 nM
EC50 [6]: > 100000 nM
Max [9]: 97%
